Laboratory results reported in PMC3849818 (Journal of medicinal chemistry, 2013).

Experiments:
orexin 1 (OX1) receptor = biological target: T1, orexin 1 (OX1) receptor (Homo sapiens, UniProt O43613); assay: OX1 calcium mobilization functional assay; assay type: cell-based; details: for OX2/OX1: ratio of Ke values
T1 sequence (O43613 1-425): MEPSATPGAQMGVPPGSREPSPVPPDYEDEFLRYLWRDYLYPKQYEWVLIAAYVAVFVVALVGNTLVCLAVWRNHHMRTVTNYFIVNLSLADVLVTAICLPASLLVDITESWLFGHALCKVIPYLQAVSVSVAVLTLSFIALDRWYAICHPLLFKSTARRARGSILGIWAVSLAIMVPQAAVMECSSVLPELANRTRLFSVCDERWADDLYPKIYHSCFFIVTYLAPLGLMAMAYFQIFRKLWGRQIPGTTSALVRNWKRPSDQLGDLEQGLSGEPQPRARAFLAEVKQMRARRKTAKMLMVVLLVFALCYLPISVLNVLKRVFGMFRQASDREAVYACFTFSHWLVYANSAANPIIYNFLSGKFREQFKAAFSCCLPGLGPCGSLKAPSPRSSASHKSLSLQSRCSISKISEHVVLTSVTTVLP

OX2 receptor = biological target: T2, OX2 receptor (Homo sapiens, UniProt O43614); assay: OX2 calcium mobilization functional assay; assay type: cell-based
T2 sequence (O43614 1-444): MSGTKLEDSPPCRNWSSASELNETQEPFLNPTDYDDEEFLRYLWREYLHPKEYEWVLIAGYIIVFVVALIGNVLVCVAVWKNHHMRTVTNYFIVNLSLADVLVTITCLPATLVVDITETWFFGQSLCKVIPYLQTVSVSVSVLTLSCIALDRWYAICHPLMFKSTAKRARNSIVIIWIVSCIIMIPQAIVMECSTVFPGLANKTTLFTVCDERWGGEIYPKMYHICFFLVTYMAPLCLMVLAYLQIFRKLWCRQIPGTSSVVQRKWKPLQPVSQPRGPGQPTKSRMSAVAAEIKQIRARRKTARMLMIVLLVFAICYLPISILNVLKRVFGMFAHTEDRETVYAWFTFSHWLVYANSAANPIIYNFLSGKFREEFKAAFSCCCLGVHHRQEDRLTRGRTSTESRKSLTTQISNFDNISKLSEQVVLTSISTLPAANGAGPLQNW

Compound	OX2/OX1 (orexin 1 (OX1) receptor)	Kd (OX2 receptor)	further results
COc1ccc(CC2c3cc(OC)c(OC)cc3CCN2CC(=O)N[C@@H](C)c2ccccc2)cc1OC (stereo partly drawn) [Compound 49, 2-{1-[(3,4-dimethoxyphenyl)methyl]-6,7-dimethoxy-1,2,3,4-tetrahydroisoquinolin-2-yl}-N-[(1S)-1-phenylethyl]acetamide]	–	–	OX1 activity in words (orexin 1 (OX1) receptor; at 10 μM): inactive; OX2 activity in words (OX2 receptor; at 10 μM): inactive
COc1ccc(CC2c3cc(OC)c(OC)cc3CCN2CC(=O)NCc2ccc(Cl)cc2)cc1OC (stereo not drawn) [Compound 51, N-[(4-chlorophenyl)methyl]-2-{1-[(3,4-dimethoxyphenyl)methyl]-6,7-dimethoxy-1,2,3,4-tetrahydroisoquinolin-2-yl}acetamide]	–	2.27 ± 0.11 µM	–
CCOc1cc2c(cc1OC)CCN(CC(=O)NCc1cccnc1)C2Cc1ccc(OC)c(OC)c1 (stereo not drawn) [Compound 74, 2-{1-[(3,4-dimethoxyphenyl)methyl]-7-ethoxy-6-methoxy-1,2,3,4-tetrahydroisoquinolin-2-yl}-N-(pyridin-3-ylmethyl)acetamide]	>637	> 10 µM	–
COc1ccc(CC2c3cc(OCC(F)(F)F)c(OC)cc3CCN2CC(=O)NCc2ccccn2)cc1OC (stereo not drawn) [Compound 71, 2-{1-[(3,4-dimethoxyphenyl)methyl]-6-methoxy-7-(2,2,2-trifluoroethoxy)-1,2,3,4-tetrahydroisoquinolin-2-yl}-N-(pyridin-2-ylmethyl)acetamide]	>444	> 10 µM	–
COc1ccc(CC2c3cc(OCCC(C)C)c(OC)cc3CCN2CC(=O)NCc2ccccc2)cc1OC (stereo not drawn) [Compound 16, N-benzyl-2-{1-[(3,4-dimethoxyphenyl)methyl]-6-methoxy-7-(3-methylbutoxy)-1,2,3,4-tetrahydroisoquinolin-2-yl}acetamide]	–	3.92 ± 1.2 µM	–
COc1ccc(CC2c3cc(OC)c(OC)cc3CCN2CC(=O)N(C)Cc2ccccc2)cc1OC (stereo not drawn) [Compound 39, N-benzyl-2-{1-[(3,4-dimethoxyphenyl)methyl]-6,7-dimethoxy-1,2,3,4-tetrahydroisoquinolin-2-yl}-N-methylacetamide]	>4.8	> 10 µM	–
COc1ccc(CC2c3cc(OC)c(OC)cc3CCN2CC(=O)Nc2cccc3ccccc23)cc1OC (stereo not drawn) [Compound 41, 2-{1-[(3,4-dimethoxyphenyl)methyl]-6,7-dimethoxy-1,2,3,4-tetrahydroisoquinolin-2-yl}-N-(naphthalen-1-yl)acetamide]	–	–	fold less potent than the benzyl compound (OX1) (orexin 1 (OX1) receptor; relative to compound 6): around 3.6 fold
CCCCOc1cc2c(cc1OC)CCN(CC(=O)NCc1ccccc1)C2Cc1ccc(OC)c(OC)c1 (stereo not drawn) [Compound 14, N-benzyl-2-{7-butoxy-1-[(3,4-dimethoxyphenyl)methyl]-6-methoxy-1,2,3,4-tetrahydroisoquinolin-2-yl}acetamide]	–	1.89 ± 0.48 µM	–
COc1ccc(CC2c3cc(OS(C)(=O)=O)c(OC)cc3CCN2CC(=O)NCc2ccccc2)cc1OC (stereo not drawn) [Compound 26, 2-[(benzylcarbamoyl)methyl]-1-[(3,4-dimethoxyphenyl)methyl]-6-methoxy-1,2,3,4-tetrahydroisoquinolin-7-yl methanesulfonate]	–	2.17 ± 0.79 µM	–
COc1ccc(CC2c3cc(OC)c(OC)cc3CCN2CC(=O)N2CCCC(c3ccccc3)C2)cc1OC (stereo not drawn) [Compound 36, 2-{1-[(3,4-dimethoxyphenyl)methyl]-6,7-dimethoxy-1,2,3,4-tetrahydroisoquinolin-2-yl}-1-(3-phenylpiperidin-1-yl)ethan-1-one]	–	9.03 ± 3.8 µM	–
COc1ccc(CC2c3cc(OC)c(OC)cc3CCN2CC(=O)N2CCc3ccccc3C2)cc1OC (stereo not drawn) [Compound 35, 2-{1-[(3,4-dimethoxyphenyl)methyl]-6,7-dimethoxy-1,2,3,4-tetrahydroisoquinolin-2-yl}-1-(1,2,3,4-tetrahydroisoquinolin-2-yl)ethan-1-one]	–	9 ± 0.76 µM	–
CCCCCCNC(=O)Nc1ccc(CNC(=O)CN2CCc3cc(OC)c(OC)cc3C2Cc2ccc(OC)c(OC)c2)cc1 (stereo not drawn) [Compound 59, 2-{1-[(3,4-dimethoxyphenyl)methyl]-6,7-dimethoxy-1,2,3,4-tetrahydroisoquinolin-2-yl}-N-({4-[(hexylcarbamoyl)amino]phenyl}methyl)acetamide]	–	2.44 ± 0.67 µM	–
COc1ccc(CC2c3cc(OS(=O)(=O)c4ccccc4)c(OC)cc3CCN2CC(=O)NCc2ccccc2)cc1OC (stereo not drawn) [Compound 29, 2-[(benzylcarbamoyl)methyl]-1-[(3,4-dimethoxyphenyl)methyl]-6-methoxy-1,2,3,4-tetrahydroisoquinolin-7-yl benzenesulfonate]	–	2.9 ± 0.191 µM	–
COc1ccc(CC2c3cc(OC)c(OC)cc3CCN2CC(=O)NCc2ccc(F)cc2)cc1OC (stereo not drawn) [Compound 52, 2-{1-[(3,4-dimethoxyphenyl)methyl]-6,7-dimethoxy-1,2,3,4-tetrahydroisoquinolin-2-yl}-N-[(4-fluorophenyl)methyl]acetamide]	–	3.46 ± 1 µM	–
COc1ccc(CC2c3cc(OCC4CCCCC4)c(OC)cc3CCN2CC(=O)NCc2ccccc2)cc1OC (stereo not drawn) [Compound 17, N-benzyl-2-[7-(cyclohexylmethoxy)-1-[(3,4-dimethoxyphenyl)methyl]-6-methoxy-1,2,3,4-tetrahydroisoquinolin-2-yl]acetamide]	–	–	OX1 activity, bound stated (orexin 1 (OX1) receptor; no activity up to the stated concentration): > 10 µM
COc1ccc(CC2c3cc(OC)c(OC)cc3CCN2CC(=O)NCc2ccc(NC(C)=O)cc2)cc1OC (stereo not drawn) [Compound 57, 2-{1-[(3,4-dimethoxyphenyl)methyl]-6,7-dimethoxy-1,2,3,4-tetrahydroisoquinolin-2-yl}-N-[(4-acetamidophenyl)methyl]acetamide]	–	–	OX1 activity in words (orexin 1 (OX1) receptor; no concentration given): total loss of OX1 activity

The next lines start with results.

OX2/OX1 (orexin 1 (OX1) receptor)	Kd (OX2 receptor)	Compound	further results
>31.7	> 10 µM	CCCCCCOc1cc2c(cc1OC)CCN(CC(=O)NCc1ccccc1)C2Cc1ccc(OC)c(OC)c1 (stereo not drawn) [Compound 15, N-benzyl-2-{1-[(3,4-dimethoxyphenyl)methyl]-7-(hexyloxy)-6-methoxy-1,2,3,4-tetrahydroisoquinolin-2-yl}acetamide]	–
>485	> 10 µM	CCCOc1cc2c(cc1OC)CCN(CC(=O)NCc1ccccn1)C2Cc1ccc(OC)c(OC)c1 (stereo not drawn) [Compound 69, 2-{1-[(3,4-dimethoxyphenyl)methyl]-6-methoxy-7-propoxy-1,2,3,4-tetrahydroisoquinolin-2-yl}-N-(pyridin-2-ylmethyl)acetamide]	–
<0.4	3.79 ± 0.67 µM	CCCCCC(=O)Nc1ccc(CNC(=O)CN2CCc3cc(OC)c(OC)cc3C2Cc2ccc(OC)c(OC)c2)cc1 (stereo not drawn) [Compound 58, N-{4-[(2-{1-[(3,4-dimethoxyphenyl)methyl]-6,7-dimethoxy-1,2,3,4-tetrahydroisoquinolin-2-yl}acetamido)methyl]phenyl}hexanamide]	–
>333	> 10 µM	CCOc1cc2c(cc1OC)CCN(CC(=O)NCc1ccccc1)C2Cc1ccc(OC)c(OC)c1 (stereo not drawn) [Compound 12, N-benzyl-2-{1-[(3,4-dimethoxyphenyl)methyl]-7-ethoxy-6-methoxy-1,2,3,4-tetrahydroisoquinolin-2-yl}acetamide]	–
>578	> 10 µM	CCCOc1cc2c(cc1OC)CCN(CC(=O)NCc1ccccc1)C2Cc1ccc(OC)c(OC)c1 (stereo not drawn) [Compound 13, N-benzyl-2-{1-[(3,4-dimethoxyphenyl)methyl]-6-methoxy-7-propoxy-1,2,3,4-tetrahydroisoquinolin-2-.yl}acetamide]	–
>114	> 10 µM	CCOc1cc2c(cc1OC)CCN(CC(=O)NCc1ccccn1)C2Cc1ccc(OC)c(OC)c1 (stereo not drawn) [Compound 73, 2-{1-[(3,4-dimethoxyphenyl)methyl]-7-ethoxy-6-methoxy-1,2,3,4-tetrahydroisoquinolin-2-yl}-N-(pyridin-2-ylmethyl)acetamide]	–
–	2.31 ± 0.54 µM	CCCCCCCNC(=O)CN1CCc2cc(OC)c(OC)cc2C1Cc1ccc(OC)c(OC)c1 (stereo not drawn) [Compound 60, 2-{1-[(3,4-dimethoxyphenyl)methyl]-6,7-dimethoxy-1,2,3,4-tetrahydroisoquinolin-2-yl}-N-heptylacetamide]	–
–	0.655 ± 0.19 µM	COc1ccc(CC2c3cc(OC)c(OC)cc3CCN2CC(=O)NC2CCCc3ccccc32)cc1OC (stereo not drawn) [Compound 47, 2-{1-[(3,4-dimethoxyphenyl)methyl]-6,7-dimethoxy-1,2,3,4-tetrahydroisoquinolin-2-yl}-N-(1,2,3,4-tetrahydronaphthalen-1-yl)acetamide]	–
–	1.76 ± 0.37 µM	COc1ccc(CC2c3cc(OC)c(OC)cc3CCN2CC(=O)Nc2ccccc2-c2ccccc2)cc1OC (stereo not drawn) [Compound 44, 2-{1-[(3,4-dimethoxyphenyl)methyl]-6,7-dimethoxy-1,2,3,4-tetrahydroisoquinolin-2-yl}-N-(2-phenylphenyl)acetamide]	–
–	5.74 ± 0.096 µM	COc1cc2c(cc1O)C(Cc1ccc(OC)c(OC)c1)N(CC(=O)NCc1ccccc1)CC2 (stereo not drawn) [Compound 11, N-benzyl-2-{1-[(3,4-dimethoxyphenyl)methyl]-7-hydroxy-6-methoxy-1,2,3,4-tetrahydroisoquinolin-2-yl}acetamide]	–
